Assay results published in patent publication US9718781B2, “Methods and compounds for treating proliferative disorders and viral infections” (University College Dublin, National University of Ireland, …, priority 2012, dated 2017).
Like-named read-outs stand apart in the source and are kept apart here.

System: human platelets
Assay: U46619-induced human platelet aggregation ex vivo (platelet rich plasma)
Format: cell-based
From the text: A modification of the turbidimetric method originally developed by Born & Cross (Born, G. V. and Cross, M. J., The Aggregation of Blood Platelets, J Physiol, 1963, 168:178-95) is used. The principle is based on the diffraction of the light by particles. When a light beam passes through a suspension of particles, it is diffracted, depending on the number and the size of the particles in suspension.
In the Born & Cross method, a light beam passes through a platelet suspension and the quantity of light is measured by a detector placed after the sample. Upon platelet aggregation, the size of platelet aggregates will increase while the total number of free platelets will decrease. Consequently, less light will be diffracted and the detector will record an increase in light intensity. The aggregometer has been developed based on these concepts. Variations in light transmission recorded by this device reflects the platelet physiology. When an agonist of platelet aggregation is added to a platelet suspension, platelets undergo activation and shape change. This step is characterized by an increase in platelet's apparent volume and thus a decrease of transmitted light. Subsequent platelet aggregation gradually forms aggregates of increasing size. Transmitted light slightly increases until a plateau is reached. The aggregation of platelet can be confirmed after the experiment by visual direct inspection of the test tube.
Preparation of platelet suspension is achieved by blood centrifugation at 160 g for 10 minutes. The PRP is re-centrifuged at 160 g for 10 min to remove contaminating red and white blood cells. The supernatant which is collected contains the platelets rich plasma (PRP). The remaining blood is subsequently centrifuged at 900 g for 15 min in order to retrieve plasma (platelets poor plasma, PPP). PRP is diluted with PPP to reach a final concentration of 150×10^3 […] PRP is kept warmed at 37° C. in the aggregometer and the adequate dilution of drug to test is introduced in the sample. Platelet aggregation is induced after 10 minutes incubation. Light transmission (T) is measured throughout the experiment, which is ended 8 minutes after induction of aggregation. Maximal light transmission (Tmax) is determined in the sample without drugs. Minimal light transmission (Tmin) is measured in PRP without inducer.
The effect of NTP4 and the previously identified lead TP antagonist, TP20, on U46619-mediated platelet aggregation in side-by-side comparisons was performed in platelet rich plasma (PRP) using the PAP-8E platelet aggregometer.
FIG. 4A-4C show the effect of TP20 & NTP4 on U46619-mediated platelet aggregation. PRP was prepared from blood taken from healthy volunteers into syringes containing 3.8% sodium citrate and 10 μM indomethacin such that the final ratio of anticoagulant to blood was 1:9. Aliquots of PRP (300 μl) were pre-incubated for 10 min with the TP antagonists, TP20 and NTP4, where 2-fold serial dilutions from 1 μM were prepared for each, prior to stimulating platelets with 1 μM U46619, incubated at 37° C., with stirring. FIG. 4A and FIG. 4B: Representative dose-response platelet aggregation profiles for TP20 (FIG. 4A) and NTP4 (FIG. 4B), where data is presented as Percentage Aggregation, as determined by changes in light transmission using the PAP-8E Platelet Aggregation Profiler as a function of time. FIG. 4C: The dose-response curves for platelet aggregation are presented as the mean (±S.E.M.) maximum Percentage Aggregation as a function of the log of the TP antagonist concentration. Data presented is representative of ≧6 independent experiments.

[1] = PRP, PAP-8E aggregometer, 1 μM U46619, side-by-side, read-out: IC50 Value for Inhibition of U46619-Mediated Platelet Aggregation (Mean ± S.E.M.)

| SMILES | IC50 (Homo sapiens, Platelet, PRP, PAP-8E aggregometer, 1 μM U46619, side-by-side, read-out: IC50 Value for Inhibition of U46619-Mediated Platelet Aggregation (Mean ± S.E.M.)) | IC50 [1] | IC50 (Homo sapiens, Platelet, human platelets ex vivo, Table 3, read-out: IC50 data for inhibition of U46619-induced platelet aggregation) |
| --- | --- | --- | --- |
| COc1ccc(-c2cccc(Oc3ccc(C#N)cc3S(=O)(=O)NC(=O)NC(C)(C)C)c2)cc1 [NTP4, N-(tert-butylcarbamoyl)-5-cyano-2-((4′-methoxy-[1,1′-biphenyl]-3-yl)oxy)benzenesulfonamide] | 41.5 ± 7.69 nM | 40.3 ± 7.08 nM | – |
| COc1ccc(-c2cccc(Oc3ccc([N+](=O)[O-])cc3S(=O)(=O)NC(=O)NC(C)(C)C)c2)cc1 [TP20, N-(tert-butylcarbamoyl)-2-((4′-methoxy-[1,1′-biphenyl]-3-yl)oxy)-5-nitrobenzene-sulfonamide] | – | 4.62 ± 0.72 nM | 4.71 nM |
